The source of these data is article PMC12671136, “Antimicrobial peptides disrupting the bacterial membrane reduce Salmonella colonization in chickens” (Microbiology Spectrum, 2025).

≈ marks a conversion by molar mass, not a printed value. Peptide text beside a SMILES is read from it.

Type in all cases: cell-based
Assay [1] deals with Salmonella Enteritidis (SE). The settings on record: 12 h. As to the method:
(§1) The inhibitory effect of the peptides was assessed as described previously ([23]). ST was grown overnight and adjusted to 5 × 10^5 CFU/ml, and 100 µL of this measured concentration was placed into the wells of a 96-well plate. Peptides P1–P6 were added to the well at 12 mM concentration, and the plate was incubated in a TECAN Sunrise^TM absorbance microplate reader at 37°C, with kinetic absorbance measurements taken every 30 min for 12 h. The growth inhibitory activity was calculated with the formula (OD600 DMSO-treated well − OD600 peptide-treated well)/OD600 DMSO-treated well × 100%. Wells treated with DMSO and containing Salmonella, as well as sterile media wells without Salmonella, were used as controls. At least two independent experiments were conducted.
(§2) MIC was determined as the peptide concentration at which no increase in growth (no increase in OD) was observed, indicating complete inhibition of ST growth. Additionally, to test the efficacy of peptides against another serovar, the assay was conducted using SE, with peptides added at 15 mM and 18 mM concentrations. Following incubation (37°C, 12 h), cultures were plated on the LB agar plate to confirm the bactericidal effect. At least two independent experiments were conducted.
(§3) To analyze the perceived efficacy of arginine and lysine substitutes reported in previous studies ([36], [37]), specific amino acid residues in P1 and P2 were replaced with lysine or arginine and tested if the substitutions enhanced anti-Salmonella (ST and SE) activity. The MICs of the arginine or lysine substituted peptides ([…], […], […], KDENK, PDEKK, KDEKK) were determined as described above. At least two independent experiments were conducted.

For assay [2], the system named is Salmonella Typhimurium (ST). Conditions: for MIC: murium (ST, 12 h). The procedure:
as §1, §2, §3

The test system of a further assay is Salmonella Albany. As to the method:
(§4) To further test the spectrum of the peptides’ anti-Salmonella capabilities, eight additional Salmonella serovars commonly implicated in foodborne illness (S. Anatum, S. Albany, S. Brenderup, S. Javiana, S. Heidelberg, S. Muenchen, S. Newport, S. Saintpaul) were investigated (Table S1). P1, P2, and P4 (selected based on dose-response assay results) were added to the assay at their MICs to determine their effect on different serovars. Inhibition was determined using the criteria described above.

The next assay relates to Salmonella Anatum. The procedure: as §4
Another assay relates to Salmonella Brenderup. As to the method: as §4
The subject of the next assay is Salmonella Heidelberg. As to the method:
as §4

Another assay concerns Salmonella Javiana. The procedure: as §4
The test system of another assay is Salmonella Muenchen. The procedure: as §4
The subject of a further assay is Salmonella Newport. As to the method:
as §4

A further assay has as its system Salmonella Saintpaul. As to the method:
as §4

For assay [3], the system named is Salmonella Enteritidis (SE). As to the method: (§5) P1, P2, and P4 were heated for 6 min at 86°C ([21]) or treated with protease proteinase K (200 µg/ml) at 50°C for 30 min ([26]). Afterward, the treated and/or heated peptides at their respective MICs were evaluated in the inhibition assay with Salmonella. The protocol from above using the TECAN microplate reader was followed with the same controls.

The subject of assay [4] is Salmonella Typhimurium (ST). Conditions: murium (ST). As to the method:
as §5

Turning to `N=C(N)NCCC[C@H](NC(=O)[C@H](CCCNC(=N)N)NC(=O)[C@H](CCC(=O)O)NC(=O)[C@H](CCC(N)=O)NC(=O)[C@H](CCCNC(=N)N)NC(=O)[C@H](CCCNC(=N)N)NC(=O)[C@@H]1CCCN1C(=O)[C@@H](N)CC(N)=O)C(=O)O` (H-NPRRQERR-OH), the minimal inhibitory concentration (MIC) (usually the lowest concentration that inhibits growth of the organism) in assay [1] worked out at 18 mM (≈ 20 mg/mL); in assay [2] it was 15 mM (≈ 16.7 mg/mL).

`N=C(N)NCCC[C@H](NC(=O)[C@H](CCCNC(=N)N)NC(=O)[C@H](CCC(=O)O)NC(=O)[C@H](CCCNC(=N)N)NC(=O)[C@H](CCCNC(=N)N)NC(=O)[C@H](CCCNC(=N)N)NC(=O)[C@@H]1CCCN1C(=O)[C@@H](N)CC(N)=O)C(=O)O` (H-NPRRRERR-OH): the minimum inhibitory concentration (MIC) in [1] is greater than 18 mM; in assay [2], 15 mM (≈ 17.1 mg/mL).

For the compound `N=C(N)NCCC[C@H](NC(=O)[C@H](CCCNC(=N)N)NC(=O)[C@H](CCC(=O)O)NC(=O)[C@H](CCCNC(=N)N)NC(=O)[C@H](CCCNC(=N)N)NC(=O)[C@H](CO)NC(=O)[C@@H]1CCCN1C(=O)[C@@H](N)CC(N)=O)C(=O)O` (H-NPSRRERR-OH), the MIC in assay [1] and in [2] was greater than 18 mM in each case.

As for `NCCCC[C@H](NC(=O)[C@H](CCCCN)NC(=O)[C@H](CCC(=O)O)NC(=O)[C@H](CC(=O)O)NC(=O)[C@@H](N)CCCCN)C(=O)O` [KDEKK] (H-KDEKK-OH), the minimum inhibitory concentration (MIC) in assay [1] and in assay [2] was 15 mM (≈ 9.7 mg/mL) in each case.

Consider `NCCCC[C@H](NC(=O)[C@H](CC(N)=O)NC(=O)[C@H](CCC(=O)O)NC(=O)[C@H](CC(=O)O)NC(=O)[C@@H](N)CCCCN)C(=O)O` [KDENK] (H-KDENK-OH), for which the minimum inhibitory concentration (MIC) in assay [1] and in assay [2] was 12 mM (≈ 7.59 mg/mL) in each case.

On to `NCCCC[C@H](NC(=O)[C@H](CCCCN)NC(=O)[C@H](CCC(=O)O)NC(=O)[C@H](CC(=O)O)NC(=O)[C@@H]1CCCN1)C(=O)O` [PDEKK] (H-PDEKK-OH), for which the minimal inhibitory concentration (MIC) in assay [2] was found to be 15 mM (≈ 9.24 mg/mL).

In the case of `N=C(N)NCCC[C@H](NC(=O)[C@H](CCCNC(=N)N)NC(=O)[C@H](CCC(=O)O)NC(=O)[C@H](CCC(N)=O)NC(=O)[C@H](CCCNC(=N)N)NC(=O)[C@H](CO)NC(=O)[C@@H]1CCCN1C(=O)[C@@H](N)CC(N)=O)C(=O)O` [Peptide P1] (H-NPSRQERR-OH), in [1], the “MIC (mM) against SE, No treatment” value is on record as 18 mM (≈ 18.8 mg/mL). Besides, the “Efficacy against Salmonella Albany (concentration inhibiting completely, MIC)” value in the assay on Salmonella Albany is recorded as 18 mM. Further, the “Efficacy against Salmonella Anatum (concentration inhibiting completely, MIC)” value with Salmonella Anatum amounted to 18 mM. In addition, the “Efficacy against Salmonella Brenderup (concentration inhibiting completely, MIC)” value with Salmonella Brenderup stood at 18 mM. The “Efficacy against Salmonella Heidelberg (concentration inhibiting completely, MIC)” value in the assay with Salmonella Heidelberg was determined as 18 mM. Also, in the assay on Salmonella Javiana, the “Efficacy against Salmonella Javiana (concentration inhibiting completely, MIC)” value worked out at 18 mM. Moreover, in the assay on Salmonella Muenchen, the “Efficacy against Salmonella Muenchen (concentration inhibiting completely, MIC)” value amounted to 18 mM. Further, the “Efficacy against Salmonella Newport (concentration inhibiting completely, MIC)” value with Salmonella Newport turned out to be 18 mM. Also, the “Efficacy against Salmonella Saintpaul (concentration inhibiting completely, MIC)” value with Salmonella Saintpaul was 18 mM. For the same compound, in [3], the “MIC (mM) against SE, Heat treatment” value is 18 mM (≈ 18.8 mg/mL) and the “MIC (mM) against SE, Protease treatment” value is listed as 18 mM (≈ 18.8 mg/mL). In assay [4], the “MIC (mM) against ST, Heat treatment” value amounted to 18 mM (≈ 18.8 mg/mL) and the “MIC (mM) against ST, Protease treatment” value is on record as 18 mM (≈ 18.8 mg/mL).

In the case of `NCCCC[C@H](NC(=O)[C@H](CC(N)=O)NC(=O)[C@H](CCC(=O)O)NC(=O)[C@H](CC(=O)O)NC(=O)[C@@H]1CCCN1)C(=O)O` [Peptide P2] (H-PDENK-OH), in [1], the “MIC (mM) against SE, No treatment” value stood at 15 mM (≈ 9.02 mg/mL). Further, the “Efficacy against Salmonella Albany (concentration inhibiting completely, MIC)” value in the assay on Salmonella Albany is listed as 15 mM. The “Efficacy against Salmonella Anatum (concentration inhibiting completely, MIC)” value in the assay on Salmonella Anatum is 15 mM. In addition, the “Efficacy against Salmonella Brenderup (concentration inhibiting completely, MIC)” value in the assay on Salmonella Brenderup is recorded as 15 mM. Further, the “Efficacy against Salmonella Heidelberg (concentration inhibiting completely, MIC)” value in the assay on Salmonella Heidelberg amounted to 15 mM. For the same compound, the “Efficacy against Salmonella Javiana (concentration inhibiting completely, MIC)” value in the assay with Salmonella Javiana was found to be 15 mM. Moreover, in the assay on Salmonella Muenchen, the “Efficacy against Salmonella Muenchen (concentration inhibiting completely, MIC)” value came out at 15 mM. The “Efficacy against Salmonella Newport (concentration inhibiting completely, MIC)” value with Salmonella Newport was 15 mM. In addition, the “Efficacy against Salmonella Saintpaul (concentration inhibiting completely, MIC)” value in the assay with Salmonella Saintpaul was found to be 15 mM. Moreover, in [3], the “MIC (mM) against SE, Heat treatment” value turned out to be 15 mM (≈ 9.02 mg/mL) and the “MIC (mM) against SE, Protease treatment” value was 15 mM (≈ 9.02 mg/mL). In assay [4], the “MIC (mM) against ST, Heat treatment” value came to 15 mM (≈ 9.02 mg/mL) and the “MIC (mM) against ST, Protease treatment” value came to 15 mM (≈ 9.02 mg/mL).

As for `CC(C)[C@H](N)C(=O)N[C@@H](Cc1c[nH]cn1)C(=O)N[C@H](C(=O)N[C@@H](C)C(=O)N1CCC[C@H]1C(=O)N[C@@H](CCCCN)C(=O)O)[C@@H](C)O` [Peptide P3] (H-VHTAPK-OH; N-terminus and C-terminus assumed), the “Complete inhibition of ST growth” value in assay [2] (peptide 6, 12, 15 and 18 mM, 12 h, 37°C) is on record as “Neither P3 nor P4 completely inhibited ST”.

For `CSCC[C@H](N)C(=O)N[C@@H](CC(C)C)C(=O)N[C@@H](CC(N)=O)C(=O)N[C@@H](CCC(=O)O)C(=O)N[C@@H](CCCNC(=N)N)C(=O)N[C@H](C(=O)N[C@@H](CCCCN)C(=O)O)C(C)C` [Peptide P4] (H-MLNERVK-OH), the “MIC (mM) against SE, No treatment” value in assay [1] stood at 18 mM (≈ 16 mg/mL). For the same compound, in the assay with Salmonella Albany, the “Efficacy against Salmonella Albany (concentration inhibiting completely, MIC)” value turned out to be 18 mM. In the assay with Salmonella Anatum, the “Efficacy against Salmonella Anatum (concentration inhibiting completely, MIC)” value stood at 18 mM. The “Efficacy against Salmonella Brenderup (concentration inhibiting completely, MIC)” value with Salmonella Brenderup amounted to 18 mM. The “Efficacy against Salmonella Heidelberg (concentration inhibiting completely, MIC)” value in the assay with Salmonella Heidelberg was 18 mM. For the same compound, in the assay with Salmonella Javiana, the “Efficacy against Salmonella Javiana (concentration inhibiting completely, MIC)” value amounted to 18 mM. Besides, the “Efficacy against Salmonella Muenchen (concentration inhibiting completely, MIC)” value with Salmonella Muenchen was 18 mM. In addition, the “Efficacy against Salmonella Newport (concentration inhibiting completely, MIC)” value in the assay with Salmonella Newport was 18 mM. Further, in the assay on Salmonella Saintpaul, the “Efficacy against Salmonella Saintpaul (concentration inhibiting completely, MIC)” value came to 18 mM. For the same compound, in assay [3], the “MIC (mM) against SE, Heat treatment” value is listed as 18 mM (≈ 16 mg/mL) and the “MIC (mM) against SE, Protease treatment” value is recorded as 18 mM (≈ 16 mg/mL). Moreover, in assay [4], the “MIC (mM) against ST, Heat treatment” value is reported as 18 mM (≈ 16 mg/mL) and the “MIC (mM) against ST, Protease treatment” value turned out to be 18 mM (≈ 16 mg/mL).
